Where two headings read alike, the source gives them in different places. Where a SMILES comes first, the peptide text is derived from it. [ ]: non-standard residue; d: D form. The star is where a group is joined. Palmitoyl = CCCCCCCCCCCCCCCC(=O)*; hPhe = N[C@@H](CCc1ccccc1)C(=O)O; β3hK = NCCCC[C@H](N)CC(=O)O
Key:
[1] = molecular target: T1, DENV protease (Dengue virus type 2, UniProt P29990); assay: biochemical; conditions: read-out: inhibition of DENV
T1 construct: The virus-encoded dengue protease comprises the amino-terminal 180 amino acids of NS3 (NS3pro) of the polyprotein
Method in brief: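 DENV protease (100 nM) was pre-incubated 15 min with inhibitors in 50 mM Tris-HCl pH 9.0, 10% ethylene glycol, 0.0016% Brij 58. FRET substrate (50 μM final) started the reaction, monitored 15 min as RFU/s slope. IC50 came from triplicate means versus concentration.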

[2] = molecular target: T2, WNV protease (West Nile virus, UniProt P06935); assay: WNV protease assay (analogous procedure); assay type: biochemical
T2 construct: a trypsin-like serine protease domain in the N-terminal region of the flaviviral NS3 proteins
Experimental: (§1) By catalytic activity of the protease, the cleaved substrate results in increased fluorescence that can be monitored using a BMG Labtech Fluostar OPTIMA Microtiter fluorescence plate reader (excitation wavelength of 320 nm and a monitored emission wavelength of 405 nm). Dilutions were made starting from 10 mM stock solutions in DMSO and final concentrations were measured in triplicates. The inhibitors were preincubated for 15 min with DENV protease (100 nM) in the assay buffer (50 mM Tris-HCl pH 9.0, ethylene glycol (10% v/v), and 0.0016% Brij 58). The enzymatic reaction was initiated by the addition of the FRET substrate (final concentration 50 μM) to obtain a final assay volume of 100 μL per well. The enzymatic activity was monitored for 15 min and determined as a slope of relative fluorescence units per second (RFU/s) for each concentration. The mean of the triplicates were plotted against the corresponding concentration in CDDVault to determine the IC50-values. Analogous procedures were used to determine the inhibitory potency on WNV (Kühl et al., J. Med. Chem. 2020, 63 (15): 8179-8197) and ZIKA protease (Nitsche et al., ACS Med. Chem. Lett. 2019 Feb. 14; 10 (2): 168-174). For selectivity screening of active candidates, similar biochemical assays with human serine proteases trypsin (Weigel et al., J. Med. Chem. 2015, 58 (19), 7719-7733.) and/or thrombin (Nitsche et al., J. Med. Chem. 2013, 56 (21), 8389-8403) were used.

[3] = molecular target: T3, ZIKA protease (Zika virus, UniProt Q32ZE1); assay: biochemical; conditions: for inhibition at 1 µM / inhibition at 50 µM: read-out: inhibition of ZIKV
T3 construct: a trypsin-like serine protease domain in the N-terminal region of the flaviviral NS3 proteins
Experimental: as §1

[4] = molecular target: human Thrombin (Homo sapiens, UniProt P00734); assay: Selectivity screening, human serine protease thrombin; assay type: biochemical; conditions: read-out: inhibition of human Thrombin
Experimental: as §1

[5] = molecular target: human Trypsin (Homo sapiens, UniProt P07477); assay: Selectivity screening, human serine protease trypsin; assay type: biochemical; conditions: read-out: inhibition of human Trypsin
Experimental: as §1

[6] = tested on: West Nile virus
[7] = molecular target: T2, WNV protease; assay: WNV protease assay (analogous procedure); assay type: biochemical; conditions: read-out: IC50 for WNNV

T3 sequence (Q32ZE1 1499-1676): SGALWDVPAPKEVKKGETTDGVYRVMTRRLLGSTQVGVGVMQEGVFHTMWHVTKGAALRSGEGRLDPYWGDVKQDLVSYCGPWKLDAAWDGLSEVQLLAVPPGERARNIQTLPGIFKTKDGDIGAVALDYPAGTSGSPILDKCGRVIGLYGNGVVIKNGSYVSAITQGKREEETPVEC
T3 sequence (Q32ZE1 1421-1460): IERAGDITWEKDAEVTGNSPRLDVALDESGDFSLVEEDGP
T1 sequence (P29990 1398-1437): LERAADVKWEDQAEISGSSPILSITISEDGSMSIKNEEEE
T1 sequence (P29990 1476-1653): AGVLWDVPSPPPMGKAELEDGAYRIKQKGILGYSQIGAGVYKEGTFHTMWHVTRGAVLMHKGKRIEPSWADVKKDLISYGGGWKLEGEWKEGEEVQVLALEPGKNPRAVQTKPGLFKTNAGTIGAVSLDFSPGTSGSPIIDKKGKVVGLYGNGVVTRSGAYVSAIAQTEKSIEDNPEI
T2 sequence (P06935 1424-1463): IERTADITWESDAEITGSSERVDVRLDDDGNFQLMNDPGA
T2 sequence (P06935 1502-1679): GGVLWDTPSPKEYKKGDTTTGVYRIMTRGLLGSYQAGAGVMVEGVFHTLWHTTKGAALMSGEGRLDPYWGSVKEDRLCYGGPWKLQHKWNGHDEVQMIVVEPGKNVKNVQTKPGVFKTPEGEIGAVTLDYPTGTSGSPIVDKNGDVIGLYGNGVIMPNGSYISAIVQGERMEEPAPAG

CCCCCCCCCCCCCCCC(=O)N[C@@H](CCCCN)C(=O)N[C@@H](C)C(=O)N[C@@H](C)C(=O)N[C@H](CCCCN)C(=O)c1ccccc1 [compound 136]
inhibition at 50 µM [1]: ≥ 25% | inhibition at 1 µM [1]: ≥ 20% | inhibition at 50 µM [2]: ≥ 25% | IC50 [3]: ≤ 25 µM | inhibition at 1 µM [3]: ≥ 10% | inhibition at 50 µM [3]: ≥ 65% | inhibition at 5 µM [4]: < 5% | inhibition at 5 µM [5]: < 10% | inhibition at 25 µM [5]: < 20% | EC50 [6]: ≤ 25 µM | IC50 [7]: ≤ 40 µM

CCCCCCCCCCCCCCCC(=O)N[C@@H](CCCCN)C(=O)N[C@@H](C)C(=O)N[C@@H](C)C(=O)N[C@@H](CCCCN)C(=O)C(N)=O [compound 9]
inhibition at 50 µM [1]: ≥ 25% | inhibition at 50 µM [2]: ≥ 25% | IC50 [3]: ≤ 25 µM | inhibition at 1 µM ([3]; at 1 μM): ≥ 10% | inhibition at 50 µM ([3]; at 50 μM): ≥ 65% | inhibition at 5 µM ([4]; at 5 μM): < 5% | EC50 [6]: ≤ 25 µM | IC50 [7]: ≤ 40 µM

CCCCCCCCCCCCCCCC(=O)N[C@@H](CCCCN)C(=O)N[C@@H](C)C(=O)N[C@@H](C)C(=O)N[C@@H](Cc1cnc[nH]1)C(N)=O [compound 168] (Palmitoyl-KAAH-NH2)
inhibition at 50 µM [1]: ≥ 25% | inhibition at 50 µM [2]: ≥ 25% | IC50 [3]: ≤ 25 µM | inhibition at 1 µM ([3]; at 1 μM): ≥ 10% | inhibition at 50 µM ([3]; at 50 μM): ≥ 65% | inhibition at 5 µM ([4]; at 5 μM): < 5% | inhibition at 5 µM ([5]; at 5 μM): < 10% | inhibition at 25 µM ([5]; at 25 μM): < 20% | IC50 [7]: ≤ 40 µM

CCCCCCCCCCCCCCCC(=O)N[C@@H](CCCCN)C(=O)N1CCC[C@H]1C(=O)N[C@@H](C)C(=O)N[C@@H](C(N)=O)c1ccc(OCc2ccccc2)cc1 [compound 129]
inhibition at 50 µM [1]: ≥ 25% | inhibition at 1 µM [1]: ≥ 20% | inhibition at 50 µM [2]: ≥ 25% | IC50 [3]: ≤ 25 µM | inhibition at 1 µM [3]: ≥ 10% | inhibition at 50 µM [3]: ≥ 65% | inhibition at 5 µM [4]: < 5% | inhibition at 5 µM [5]: < 10% | inhibition at 25 µM [5]: < 20% | IC50 [7]: ≤ 40 µM

CCCCCCCCCCCCCCCC(=O)N[C@H](C)C(=O)N1C[C@H](Oc2ccncc2)C[C@H]1C(=O)N[C@H](C)C(=O)N[C@H](CCCCN)C(N)=O [compound 8]
inhibition at 50 µM [1]: ≥ 25% | inhibition at 50 µM [2]: ≥ 25% | IC50 [3]: ≤ 25 µM | inhibition at 50 µM ([3]; at 50 μM): ≥ 65% | inhibition at 5 µM ([4]; at 5 μM): < 5% | inhibition at 5 µM ([5]; at 5 μM): < 10% | inhibition at 25 µM ([5]; at 25 μM): < 20% | IC50 [7]: ≤ 40 µM

CCCCCCCCCCCCCCCC(=O)N[C@@H](CCCCN)C(=O)N[C@@H](C)C(=O)N[C@@H](C)C(=O)N[C@@H](Cc1c[nH]c2ccccc12)C(N)=O [compound 92] (Palmitoyl-KAAW-NH2)
inhibition at 50 µM [1]: ≥ 25% | inhibition at 50 µM [2]: ≥ 25% | IC50 [3]: ≤ 25 µM | inhibition at 1 µM ([3]; at 1 μM): ≥ 10% | inhibition at 50 µM ([3]; at 50 μM): ≥ 65% | inhibition at 5 µM ([4]; at 5 μM): < 5% | inhibition at 5 µM ([5]; at 5 μM): < 10% | inhibition at 25 µM ([5]; at 25 μM): < 20% | IC50 [7]: ≤ 40 µM

CCCCCCCCCCCCCCCC(=O)N[C@@H](CCCCN)C(=O)N[C@@H](C)C(=O)N[C@@H](C)C(=O)N[C@@H](CCCCN)C(=O)c1ccccc1 [compound 137]
inhibition at 50 µM [1]: ≥ 25% | inhibition at 1 µM [1]: ≥ 20% | inhibition at 1 µM ([2]; at 1 μM, read-out: inhibition of WNNV): ≥ 10% | inhibition at 50 µM [2]: ≥ 25% | IC50 [3]: ≤ 25 µM | inhibition at 1 µM [3]: ≥ 10% | inhibition at 50 µM [3]: ≥ 65% | inhibition at 5 µM [4]: < 5% | inhibition at 5 µM [5]: < 10% | inhibition at 25 µM [5]: < 20% | IC50 [7]: ≤ 40 µM

CCCCCCCCCCCCCCCC(=O)N[C@@H](CCCCN)C(=O)N1CCC[C@H]1C(=O)N[C@@H](C)C(=O)N[C@@H](CCCCN)C(=O)C(N)=O [compound 10]
inhibition at 50 µM [1]: ≥ 25% | inhibition at 50 µM [2]: ≥ 25% | IC50 [3]: ≤ 25 µM | inhibition at 50 µM ([3]; at 50 μM): ≥ 65% | inhibition at 5 µM ([4]; at 5 μM): < 5% | inhibition at 5 µM ([5]; at 5 μM): < 10% | EC50 [6]: ≤ 25 µM | IC50 [7]: ≤ 40 µM

CCCCCCCCCCCCCCCC(=O)N[C@@H](CCCCN)C(=O)N[C@@H](C)C(=O)N[C@@H](CCCCN)C(C)=O [compound 175]
inhibition at 50 µM [1]: ≥ 25% | inhibition at 50 µM [2]: ≥ 25% | IC50 [3]: ≤ 25 µM | inhibition at 50 µM ([3]; at 50 μM): ≥ 65% | inhibition at 5 µM ([4]; at 5 μM): < 5% | inhibition at 5 µM ([5]; at 5 μM): < 10% | inhibition at 25 µM ([5]; at 25 μM): < 20% | IC50 [7]: ≤ 40 µM

CCCCCCCCCCCCCCCC(=O)N[C@@H](CCCCN)C(=O)N1CCC[C@H]1C(=O)N[C@@H](C)C(=O)N[C@H](Cc1ccccc1)C(N)=O [compound 123] (Palmitoyl-KPA[dF]-NH2)
inhibition at 50 µM [1]: ≥ 25% | inhibition at 50 µM [2]: ≥ 25% | IC50 [3]: ≤ 25 µM | inhibition at 1 µM ([3]; at 1 μM): ≥ 10% | inhibition at 50 µM ([3]; at 50 μM): ≥ 65% | inhibition at 5 µM ([4]; at 5 μM): < 5% | inhibition at 5 µM ([5]; at 5 μM): < 10% | inhibition at 25 µM ([5]; at 25 μM): < 20% | IC50 [7]: ≤ 40 µM

CCCCCCCCCCCCCCCC(=O)N[C@@H](CCCCN)CC(=O)N1CCC[C@H]1C(=O)N[C@@H](C)C(=O)N[C@@H](CCc1ccccc1)C(N)=O [compound 117] (Palmitoyl-[β3hK]PA[hPhe]-NH2)
inhibition at 50 µM [1]: ≥ 25% | inhibition at 50 µM [2]: ≥ 25% | IC50 [3]: ≤ 25 µM | inhibition at 1 µM ([3]; at 1 μM): ≥ 10% | inhibition at 50 µM ([3]; at 50 μM): ≥ 65% | inhibition at 5 µM ([4]; at 5 μM): < 5% | inhibition at 5 µM ([5]; at 5 μM): < 10% | inhibition at 25 µM ([5]; at 25 μM): < 20% | IC50 [7]: ≤ 40 µM

CCCCCCCCCCCCCCCC(=O)N[C@@H](CCCCN)C(=O)N[C@@H](C)C(=O)N[C@@H](C)C(=O)N[C@H](CCc1ccccc1)C(=O)C(N)=O [compound 5]
inhibition at 50 µM [1]: ≥ 25% | inhibition at 50 µM [2]: ≥ 25% | IC50 [3]: ≤ 25 µM | inhibition at 50 µM [3]: ≥ 65% | inhibition at 5 µM [4]: < 5% | inhibition at 5 µM [5]: < 10% | inhibition at 25 µM [5]: < 20% | IC50 [7]: ≤ 40 µM

CCCCCCCCCCCCCCCC(=O)N[C@H](CCCCN)C(=O)N[C@@H](C)C(=O)N[C@@H](C)C(=O)N[C@@H](CCCCN)C(N)=O [compound 115] (Palmitoyl-[dK]AAK-NH2)
inhibition at 50 µM [1]: ≥ 25% | inhibition at 50 µM [2]: ≥ 25% | IC50 [3]: ≤ 25 µM | inhibition at 1 µM ([3]; at 1 μM): ≥ 10% | inhibition at 50 µM ([3]; at 50 μM): ≥ 65% | inhibition at 5 µM ([4]; at 5 μM): < 5% | inhibition at 5 µM ([5]; at 5 μM): < 10% | inhibition at 25 µM ([5]; at 25 μM): < 20% | IC50 [7]: ≤ 40 µM

CCCCCCCCCCCCCCCC(=O)N[C@@H](CCCCN)C(=O)N[C@@H](C)C(=O)N[C@@H](C)C(=O)N[C@H](Cc1c[nH]cn1)C(N)=O [compound 171] (Palmitoyl-KAA[dH]-NH2)
inhibition at 50 µM [1]: ≥ 25% | inhibition at 50 µM [2]: ≥ 25% | IC50 [3]: ≤ 25 µM | inhibition at 50 µM ([3]; at 50 μM): ≥ 65% | inhibition at 5 µM ([4]; at 5 μM): < 5% | inhibition at 5 µM ([5]; at 5 μM): < 10% | inhibition at 25 µM ([5]; at 25 μM): < 20% | IC50 [7]: ≤ 40 µM

Source: patent US20250059231A1, “Protease inhibitors” (priority 2021, published 2025)
